From patent publication US11311522B1 (Cavion, Inc., priority 2018, dated 2022)
Several values for one entry are separate records, joined by “and”; a condition that tells them apart may be missing. Equal entries are not always repeated.

Assays:
[1] = 7-day dose-range-finding toxicology in female rats
[2] = 90-day oral toxicology in rats; details: both, rat, in vivo
[3] = tested on: patients with essential tremor; assay: T-CALM: TETRAS-PS spiral task (item 6); format: in vivo, human
Description: The Archimedes spiral item of the TETRAS-PS subscale (Item 6) incorporates a routine clinical assessment of functional tremor impact into the TETRAS scoring of tremor severity. […] The investigator then asks the subject to copy the spiral. Each hand is tested and scored separately. […] The tremor in the spiral is scored, not the movement of the limb.
Scores for TETRAS-PS subscale item 6 were summed for both hands and the mean change from baseline was calculated for Day 15 and Day 28 (FIG. 4 and Table 4). Statistical significance was calculated by Mann-Whitney non-parametric t-test (two tailed).

cardiovascular function = assay: Cardiovascular telemetry in conscious dogs, oral
[4] = Cardiovascular telemetry in conscious dogs, oral; details: dog
[5] = Exploratory embryofetal development study in rabbits
hERG = target: T1, hERG (Homo sapiens, UniProt Q12809); assay: hERG whole-cell voltage-clamp (CHO-K1 cells); format: cell-based; details: hERG current
T1 construct: expressed in transfected cells; host or cells: CHO-K1

[6] = tested on: patients with essential tremor; assay: T-CALM: TETRAS total score; format: in vivo, human
Description: The Total TETRAS score was defined as the sum of the TETRAS performance subscale total score and the TETRAS ADL subscale score. TETRAS TOTAL score combines both patient reported outcome and objective measurement of tremor amplitude in a single score. Analyses of the TETRAS-ADL was conducted using the same type of ANCOVA model as described for the TETRAS-PS, using two-sided tests at the alpha=0.05 level of significance (FIG. 3 and Table 3).

Cav3 = tested on: T2, Cav3; assay: Cav3 potency and state dependency, summary of Cav3 antagonist pharmacological properties; format: cell-based
T2 construct: rows headed: Cav3 potency

[7] = Dutch Belted rabbit, oral gavage GD 7 through GD 20

T1 sequence (Q12809 whole entry): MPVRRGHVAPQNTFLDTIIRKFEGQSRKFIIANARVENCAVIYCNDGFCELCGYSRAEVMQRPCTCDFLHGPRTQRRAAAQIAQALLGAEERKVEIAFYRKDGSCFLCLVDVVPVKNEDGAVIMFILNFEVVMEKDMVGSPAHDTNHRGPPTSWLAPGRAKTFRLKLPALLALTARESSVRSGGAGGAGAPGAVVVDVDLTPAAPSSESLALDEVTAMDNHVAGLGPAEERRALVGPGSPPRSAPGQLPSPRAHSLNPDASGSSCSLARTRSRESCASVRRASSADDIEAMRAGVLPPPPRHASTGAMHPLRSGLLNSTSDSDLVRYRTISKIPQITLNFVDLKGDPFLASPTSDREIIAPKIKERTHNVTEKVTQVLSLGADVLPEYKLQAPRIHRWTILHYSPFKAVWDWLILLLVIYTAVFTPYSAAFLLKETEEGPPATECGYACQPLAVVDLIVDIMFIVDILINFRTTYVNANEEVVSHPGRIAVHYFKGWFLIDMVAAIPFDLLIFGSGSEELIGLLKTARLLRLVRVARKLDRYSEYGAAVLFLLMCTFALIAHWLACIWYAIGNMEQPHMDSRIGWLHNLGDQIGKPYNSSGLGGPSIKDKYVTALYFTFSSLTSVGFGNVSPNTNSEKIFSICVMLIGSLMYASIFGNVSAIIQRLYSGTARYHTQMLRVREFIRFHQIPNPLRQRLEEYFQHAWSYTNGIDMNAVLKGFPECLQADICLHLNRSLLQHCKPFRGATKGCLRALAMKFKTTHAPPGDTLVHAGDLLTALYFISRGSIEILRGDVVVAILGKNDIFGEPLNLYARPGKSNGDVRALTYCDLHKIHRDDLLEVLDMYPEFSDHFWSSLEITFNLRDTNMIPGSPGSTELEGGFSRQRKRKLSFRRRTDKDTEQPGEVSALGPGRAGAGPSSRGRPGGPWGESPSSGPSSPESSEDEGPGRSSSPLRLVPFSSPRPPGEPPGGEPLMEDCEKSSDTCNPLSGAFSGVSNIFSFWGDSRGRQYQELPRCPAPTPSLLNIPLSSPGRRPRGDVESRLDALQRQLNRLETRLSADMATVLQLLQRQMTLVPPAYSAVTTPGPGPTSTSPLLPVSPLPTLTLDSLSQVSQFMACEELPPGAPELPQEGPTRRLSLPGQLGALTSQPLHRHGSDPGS

In the case of `CC(C)c1ccc(CC(=O)N[C@H](C)c2ccc(OCC(F)(F)F)cn2)cc1` [CX-8998], the NOEL ([1]; Sprague-Dawley rat, 7-day exploratory toxicity, oral gavage) is reported as 500 mg/kg/day, the “findings indicative of dose-limiting toxicity” value ([1]; Sprague-Dawley rat, 10, 100, or 500 mg/kg/day oral gavage for 7 days) is reported as “No findings” and the NOAEL at 90 days ([2]; Sprague-Dawley, po) is reported as 300 mg/kg/day. For the same molecule, the NOAEL at 90 days ([2]; oral) was 300 mg/kg/day, the “Change from baseline in TETRAS-PS spiral item, mean” value ([3]; Day 15 (8 mg BID)) was −0.41 and the “Change from baseline in TETRAS-PS spiral item, mean” value ([3]; Day 28 (10 mg BID)) was −0.658. For the same molecule, the “Peak change in QT interval” value (cardiovascular function; 20 mg/kg oral) was -27 ms, the “Peak change in heart rate” value (cardiovascular function; 20 mg/kg oral) was “+28 beats/min” and the “Peak decrease in QT interval” value (cardiovascular function; 300 mg/kg oral) was -14 ms. For the same molecule, the “Peak increase in heart rate” value (cardiovascular function; 300 mg/kg oral) was “+47 beats/min”, the NOEL (cardiovascular function; dog, in vivo) was 2 mg/kg and the NOAEL ([4]; in vivo) was 20 mg/kg. The Cmax ([4]; plasma, po, 20 mg/kg) was ~30 µM, the Developmental toxicity ([5]; 30, 100, or 300 mg/kg/day) was “No evidence of developmental toxicity” and the “dose at which maternal toxicity was excessive” value [5, 7] was 1000 mg/kg/day. For the same molecule, the “dose at which maternal toxicity was observed” value [5, 7] was ≥30 mg/kg/day and was excessive at, the “Doses with maternal toxicity” value ([5]; rabbit, in vivo) was ≥ 30 mg/kg/day and the IC50 (hERG) was 21 µM. The IC20 (hERG; human, CHO-K1 cells expressing hERG) was 4 µM, the “Change from baseline in TETRAS-Total, LS mean” value ([6]; Day 15 (8 mg BID)) was −7.5±1.42 and −7.5 and the “Change from baseline in TETRAS-Total, LS mean” value ([6]; Day 28 (10 mg BID)) was −9.0±1.66 and −9. For the same molecule, the “>5 to 10 point worsening” value ([6]; TETRAS Total, Day 15) was 0 n (%), the “>10 point worsening” value ([6]; TETRAS Total, Day 15) was 0 n (%) and the 0 change ([6]; TETRAS Total, Day 28) was 0 n (%). For the same molecule, the “>5 to 10 point worsening” value ([6]; TETRAS Total, Day 28) was 0 n (%), the “>10 point worsening” value ([6]; TETRAS Total, Day 28) was 0 n (%) and the IC50 (Cav3) was 0.07 to 0.1 µM.
